Reference: PMC7641325, “Fragment-based discovery of a new class of inhibitors targeting mycobacterial tRNA modification” (Nucleic Acids Research, 2020)
In brackets after ≈: the same amount, converted by molar mass. Like-named read-outs stand apart in the source and are kept apart here.

How the values were obtained:
M. abscessus TrmD [1] = biological target: T1, M. abscessus TrmD (Mycobacteroides abscessus, UniProt B1MDI3); assay: biochemical; type: binding; details: for LE (ligand efficiency): from M. abscessus TrmD Kd; for fold improvement in affinity (decrease in Kd) over the parent compound: AW3 vs AW2, AW4 vs AW3, AW5 vs AW4
M. abscessus TrmD [2] = biological target: T1, M. abscessus TrmD; assay: TrmD methylation (methyltransferase) inhibition assay, UPLC readout; type: biochemical; details: for IC50: 6.25 μM SAM, 0.1 μM TrmD, 6.25 μM tRNA ProUGG, 1 h room temperature
Protocol: Assays for quantifying TrmD methylation reactions were carried out in 20 μl reactions consisting of 6.25 μM SAM, 0.1 μM TrmD and 6.25 μM tRNA^ProUGG in the presence of 0–500 μM compounds in serial dilutions using assay buffer containing 50 mM Tris–HCl pH 7.5, 10 mM MgCl2, 24 mM NH4Cl, 5% DMSO and 1 mM DTT in nuclease free water. tRNA sequences were identified from the M. abscessus genome sequence using tRNAscan-SE algorithm, ([38],[39]). […]. The reactions were carried out for 1 h at room temperature followed by addition of 20 mM EDTA to stop the reactions. Each of the 20 μl samples were diluted ten-fold with the UPLC mobile phase solvent A (0.1% formic acid in water), centrifuged for 10 min at 13 000 g, to remove any precipitates, and the supernatant was aliquoted into 96-well plates. 40 μl samples were then injected into Acquity UPLC (Waters) T3 […] column and eluted using a gradient elution consisting of Mobile Phase A: 0.1% formic acid in water and mobile phase B: 0.1% formic acid in 100% methanol for 4 min. The absorbance was monitored using a photodiode array (PDA) detector (Waters) at wavelength range of ƛ: 220–500 nm. All reactions were carried out in triplicate. The blank corrected data were analyzed using Microsoft excel and non-linear regression analysis for IC50 determination were done using GraphPad prism version 7.00, GraphPad Software, La Jolla, CA, USA.

M. tuberculosis H37Rv = assay: MIC measurement, M. tuberculosis; type: cell-based; details: Mycobacterium tuberculosis, 336 h, 7H9 base with DPPC, 2 weeks, 37°C, read-out: Minimum inhibitory concentration (MIC) M. tuberculosis
M. abscessus = assay: MIC measurement, M. abscessus; type: cell-based, Mycobacterium abscessus ssp. abscessus (ATCC 19977); details: Mycobacteroides abscessus, ATCC19977; ATCC 19977, Middlebrook 7H9 ADC, 37°C; read-out: Minimum inhibitory concentration (MIC) M. abscessus
M. gordonae = assay: MIC measurement, M. gordonae; type: cell-based; details: Mycobacterium gordonae; clinical isolate; read-out: Minimum inhibitory concentration (MIC) M. gordonae
M. terrae = assay: MIC measurement, M. terrae; type: cell-based; details: Mycolicibacter terrae; clinical isolate; read-out: Minimum inhibitory concentration (MIC) M. terrae
[3] = system: M. abscessus-infected human macrophages; assay: Macrophage infection study (CFU of intracellular M. abscessus); type: cell-based, Mycobacterium abscessus; details: 25 μM compound, 48 h incubation
Text: (§1) Blood samples were donated by healthy volunteers who had undertaken informed consent in accordance with local Research Ethics Committee approval. Peripheral blood mononuclear cells were isolated from citrated peripheral blood samples by density gradient separation using Lympholyte (Cedarlane Labs), and subsequent CD14^+ positive selection using the MACS Miltenyi Biotec Human CD14 microbead protocol (Miltenyi Biotec). CD14^+ cells were differentiated into macrophages using recombinant human granulocyte-macrophage colony-stimulating factor (200 ng/ml GM-CSF) and recombinant human interferon gamma (50 ng/ml IFNγ) (Peprotech) in standard tissue culture DMEM media containing fetal calf serum, penicillin and streptomycin. Following removal of antibiotics, macrophages were infected at a multiplicity of infection of 10:1 with M. abscessus 19977 for 2 h, washed in sterile phosphate buffered saline, and then incubated in DMEM media with FCS and 25 μM of compound for 24 and 48 h. At the given time points, supernatant was saved for cell cytotoxicity studies, and M. abscessus survival within the macrophages calculated by macrophage lysis in sterile water, and colony forming unit calculation on Columbia Blood Agar plates (VWR BDH).

M. tuberculosis TrmD = M. tuberculosis TrmD (Mycobacterium tuberculosis, UniProt P9WFY7); assay: Isothermal titration calorimetry (ITC) with M. tuberculosis TrmD; type: binding
Protocol: ITC experiments to quantify binding of ligands to TrmD were done as described in ([37]) using Malvern MicroCal iTC200 or Auto-iTC200 systems at 25°C. Titrations consisted of an initial injection (0.2 μl), discarded during data processing, followed by either 19 (2 μl) or 39 (1 μl) injections separated by intervals of 60–150 s duration. Protein was dialysed overnight at 4°C in storage buffer (M. abscessus TrmD: 50 mM HEPES pH 7.5, 500 mM NaCl, 5% glycerol; M. tuberculosis TrmD: 25 mM HEPES pH 7.5, 500 mM NaCl). Sample cell and syringe solutions were prepared using the same storage buffer, with a final DMSO concentration of 2–10% according to ligand solubility in the buffer. TrmD concentrations of either 33 or 100 μM were used, with ligand to protein concentration ratios ranging from 10 to 20:1. Control titrations without protein were also performed and subtracted from ligand to protein titrations. Titrations were fitted with Origin software (OriginLab, Northampton, MA, USA), using a one-site binding model with N fixed to 1 only for weakly binding ligands. Titrations were typically performed once (n = 1), with multiple isotherms obtained (n > 1) for key compounds of interest. Kd values are reported to two significant figures. Error provided by Origin software due to model fit is reported when n = 1, whereas standard deviation is reported when n > 1.

M. chelonae = assay: MIC measurement, M. chelonae; type: cell-based; details: Mycobacteroides chelonae; clinical isolate; read-out: Minimum inhibitory concentration (MIC) M. chelonae
M. fortuitum = assay: MIC measurement, M. fortuitum; type: cell-based; details: Mycolicibacterium fortuitum; clinical isolate; read-out: Minimum inhibitory concentration (MIC) M. fortuitum
human macrophages = assay: LDH release cytotoxicity assay; type: cell-based; details: at or below a concentration of 150 μM
Text: as §1, with “Following removal of antibiotics, macrophages were infected at a multiplicity of infection of 10:1 with M. abscessus 19977 for 2 h, washed in sterile phosphate buffered saline, and then incubated in DMEM media with FCS and 25 μM of compound for 24 and 48 h.” left out
Lactate dehydrogenase (LDH) was measured as a biomarker for cellular cytotoxicity using the Pierce LDH Cytotoxicity Assay Kit. Cell supernatant was measured at 2, 24 and 48 h post-infection according to the kit protocol.

M. avium = assay: MIC measurement, M. avium; type: cell-based; details: Mycobacterium avium; clinical isolate; read-out: Minimum inhibitory concentration (MIC) M. avium
[4] = system: axenically-maintained M. leprae; assay: M. leprae axenic culture, radiorespirometry; type: cell-based, Mycobacterium leprae; details: 100-6.25 μM, 7 days, 33°C
Protocol: Freshly harvested nude mouse foot pad derived M. leprae were suspended in modified 7H12 medium, AW7 was added at different concentrations (100–6.25 μM) and were incubated for 7 days at 33°C. Media only and rifampin (Sigma, USA) at 2.4 μM were used as negative and positive controls. Following incubation aliquots of AW7 treated and control M. leprae were processed for radiorespirometry (RR) as described previously ([43]).
(§2) Metabolism of a suspension of M. leprae was measured by evaluating the oxidation of ^14C-palmitic acid to ^14CO2 by radiorespirometry as described previously ([45]). Levels of captured ^14CO2 is proportional to the rate of ^14C-palmitic acid oxidation and used as an indicator of M. leprae viability. In the present study the seventh day cumulative counts per minute (CPM) were recorded and percentage inhibition of metabolism determined as compared to no drug control. Statistical significance between treatment groups and no drug control were determined by Student's t-test and P < 0.05 is considered as significant.

[5] = system: M. leprae maintained intracellularly in murine bone marrow macrophage; assay: Intracellular M. leprae in murine bone marrow macrophages, radiorespirometry; type: cell-based; details: Mycobacterium leprae, 168 h, AW7 at 6.2 μM, 7 days, read-out: inhibition of β-oxidation (14C-palmitic acid oxidation, radiorespirometry)
Protocol: Bone marrow cells were obtained aseptically from both femurs of female BALB/c mice and cultured on plastic cover slips in Dulbecco modified Eagle's medium (DMEM, Life Technologies, USA) supplemented with 10% (v/v) fetal calf serum (Life Technologies), 25 mM/l HEPES (Sigma, USA), 2 mM/l glutamine (Sigma, USA), 50 μg/ml ampicillin (Sigma, USA) and 10 ng/ml of recombinant murine macrophages colony stimulating factor (R&D Systems, USA) for 6–7 days at 37°C and 5% CO2. The cells were infected with freshly harvested nude mice foot pad derived live M. leprae at a multiplicity of infection (MOI) of 20:1 overnight at 33°C and then washed to remove extracellular bacteria. AW7 was added at different concentrations (100–6.25 μM) and the cells were incubated for 7 days at 33°C. Media only and rifampicin at 2.4 μM were used as negative and positive controls. […]
as §2, with “Levels of captured ^14CO2 is proportional to the rate of ^14C-palmitic acid oxidation and used as an indicator of M. leprae viability.” left out

M. abscessus TrmD [6] = biological target: T1, M. abscessus TrmD; assay: CRISPR-dCas9 knockdown of trmD in M. abscessus (target engagement); details: 25 μM AW7, doxycycline 1.5625-100 ng/ml, 72 h; effect not seen with yidC gRNA or empty vector
Text: The dCas9 encoding plasmid (pTetInt-dcas9-Km) and the second vector containing the sgRNA cassette (pGRNAz) were derived from the tetracycline inducible CRISPr Interference system of Choudhary et al. ([40]) and optimized for M. abscessus ATCC19977. The 20 nucleotides guides targeting yidC(MAB_4953c) and trmD(MAB_3226c) were annealed and cloned in between sphI and aclI of the pGRNAz. As a control the pGRNAz was left empty. The CRISPr-I containing strains were cultivated in Middlebrook 7H9 broth supplemented with 1× ADC, 0.05% tween80 and 0.5% glycerol, hygromycin 1 mg/ml and zeocin 300 μg/ml. The cultures were inoculated at 10^6CFU/ml from an exponentially grown pre-cultures. […] The OD600 was measured and the CFU counted at 72 h.

[7] = ITC, 25°C, M. abscessus TrmD, read-out: Kd

T1 sequence (B1MDI3 entry or part of it): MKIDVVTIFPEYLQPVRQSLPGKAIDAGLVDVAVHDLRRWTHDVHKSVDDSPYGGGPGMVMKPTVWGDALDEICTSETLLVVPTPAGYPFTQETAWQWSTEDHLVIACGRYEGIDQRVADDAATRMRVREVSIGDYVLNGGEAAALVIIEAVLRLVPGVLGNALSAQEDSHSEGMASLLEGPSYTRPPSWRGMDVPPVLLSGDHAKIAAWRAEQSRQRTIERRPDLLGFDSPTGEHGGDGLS
Sequence of M. tuberculosis TrmD (P9WFY7 whole entry): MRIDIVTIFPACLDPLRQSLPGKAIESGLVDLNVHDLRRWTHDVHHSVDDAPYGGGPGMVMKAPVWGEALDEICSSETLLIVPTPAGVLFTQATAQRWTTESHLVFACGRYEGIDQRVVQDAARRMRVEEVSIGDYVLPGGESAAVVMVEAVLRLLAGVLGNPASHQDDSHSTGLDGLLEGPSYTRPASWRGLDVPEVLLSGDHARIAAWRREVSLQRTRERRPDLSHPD

## Nc1cc(-c2ccc3cc[nH]c3c2)[nH]n1 [AW1]
M. abscessus TrmD [1]; [7]
  Kd: 110 ± 11 µM
M. abscessus TrmD [1]
  LE (ligand efficiency): 0.36 kcal/ mol/ heavy atom
M. abscessus TrmD [2]
  IC50: 230 ± 29 µM

## Nc1cc(-c2ccc3ccn(Cc4ccccn4)c3c2)[nH]n1 [AW2]
M. abscessus TrmD [1]; [7]
  Kd: 12 ± 1 µM
M. abscessus TrmD [1]
  LE (ligand efficiency): 0.30 kcal/ mol/ heavy atom
M. abscessus TrmD [2]
  IC50: 33 ± 4 µM

## N#Cc1c(N)n[nH]c1-c1ccc2ccn(Cc3ccccn3)c2c1 [AW3]
M. abscessus TrmD [1]
  fold improvement in affinity (decrease in Kd) over the parent compound: 25 fold
  LE (ligand efficiency): 0.36 kcal/ mol/ heavy atom
M. abscessus TrmD [1]; [7]
  Kd: 0.5 ± 0.14 µM
M. abscessus TrmD [2]
  IC50: 0.31 ± 0.01 µM
M. abscessus TrmD [2]; AW3 vs AW2
  fold decrease in IC50 over the parent compound: 100 fold

## N#Cc1c(N)n[nH]c1-c1ccc2ccn(Cc3ccc(CN4CCCC4)cn3)c2c1 [AW4]
M. abscessus TrmD [1]
  fold improvement in affinity (decrease in Kd) over the parent compound: 5 fold
  LE (ligand efficiency): 0.32 kcal/ mol/ heavy atom
M. abscessus TrmD [1]; [7]
  Kd: 0.092 ± 0.018 µM

## N#Cc1c(N)n[nH]c1-c1ccc2ccn(Cc3ccc(CN4CCCC4)cc3)c2c1 [AW5]
M. tuberculosis H37Rv
  MIC: 12.5 µM (≈ 4.96 µg/mL)
M. abscessus TrmD [1]
  fold improvement in affinity (decrease in Kd) over the parent compound: > 3 fold
  LE (ligand efficiency): 0.34 kcal/ mol/ heavy atom
M. abscessus TrmD [1]; [7]
  Kd: 0.027 ± 0.004 µM
M. abscessus
  MIC: 50 µM (≈ 19.8 µg/mL)
M. abscessus TrmD [2]
  IC50: 0.03 ± 0.003 µM

## Nc1cc(-c2ccc3ccn(Cc4ccc(CN5CCCC5)cc4)c3c2)[nH]n1 [AW6]
M. gordonae
  MIC: 100 µM (≈ 37.1 µg/mL)
M. terrae
  MIC: 100 µM (≈ 37.1 µg/mL)
[3]
  decrease in CFUs compared to the no drug control: ~82%
M. tuberculosis H37Rv
  MIC: 6.3 µM (≈ 2.34 µg/mL)
M. tuberculosis TrmD
  Kd: 0.9 µM
M. chelonae
  MIC: 100 µM (≈ 37.1 µg/mL)
M. fortuitum
  MIC: 100 µM (≈ 37.1 µg/mL)
M. abscessus TrmD [1]
  Kd: 0.49 ± 0.21 µM
  LE (ligand efficiency): 0.31 kcal/ mol/ heavy atom
Human macrophages
  cellular toxicity (LDH release): neither compound caused cellular toxicity
M. abscessus
  MIC: 50 µM (≈ 18.6 µg/mL)
M. abscessus TrmD [2]
  IC50: 1.4 ± 0.1 µM
M. avium
  MIC: 200 µM (≈ 74.3 µg/mL)

## CN1CCN(Cc2ccc(Cn3ccc4ccc(-c5[nH]nc(N)c5C#N)cc43)cc2)CC1 [AW7]
M. gordonae
  MIC: 100 µM (≈ 42.6 µg/mL)
M. terrae
  MIC: 25 µM (≈ 10.6 µg/mL)
[3]
  decrease in CFUs compared to the no drug control: 95%
M. tuberculosis H37Rv
  MIC: 6.3 µM (≈ 2.68 µg/mL)
M. tuberculosis TrmD
  Kd: 0.33 µM
M. chelonae
  MIC: 100 µM (≈ 42.6 µg/mL)
[4]
  inhibitory activity against axenic M. leprae (radiorespirometry): show inhibitory activity
M. fortuitum
  MIC: 100 µM (≈ 42.6 µg/mL)
M. abscessus TrmD [1]
  Kd: 0.073 ± 0.03 µM
  LE (ligand efficiency): 0.30 kcal/ mol/ heavy atom
Human macrophages
  cellular toxicity (LDH release): neither compound caused cellular toxicity
M. abscessus
  MIC: 50 µM (≈ 21.3 µg/mL)
M. abscessus TrmD [2]
  IC50: 0.069 ± 0.007 µM
[5]
  inhibition at 6.2 µM: > 50%
M. avium
  MIC: 100 µM (≈ 42.6 µg/mL)
M. abscessus TrmD [6]
  sensitivity of M. abscessus to the compound on incremental silencing of TrmD: progressively more sensitive to AW7

## COc1ccc(-c2cc(N)n[nH]2)cc1 [Fragment 23]
M. abscessus TrmD [1]; [7]
  Kd: 170 µM
M. abscessus TrmD [1]
  LE (ligand efficiency): 0.37 kcal/ mol/ heavy atom

## OB(O)c1ccc2cc[nH]c2c1 [Fragment 24]
M. abscessus TrmD [1]; [7]
  Kd: 260 µM
M. abscessus TrmD [1]
  LE (ligand efficiency): 0.41 kcal/ mol/ heavy atom
